The text below walks through data of patent US12516039B2, “N-linked isoquinoline amides as LRRK2 inhibitors, pharmaceutical compositions, and uses thereof” (Merck Sharp & Dohme LLC, priority 2020, dated 2026).

This test has as its target T1, GST-tagged truncated human mutant G2019S LRRK2 (Homo sapiens, UniProt Q5S007, G2019S).
T1 construct: GST-tagged truncated human mutant G2019S LRRK2; purchased Life Technologies Corporation (Carlsbad, CA)
Nature of the test: LRRK2 G2019S Km ATP LanthaScreen assay. To be noted: 134 μM ATP (Km ATP), LRRKtide substrate, mean of several tests; for IC50: read-out: LRRK2 pIC50 (converted). Type of test: biochemical. Here is the method: Unless otherwise noted, all reactions are magnetically stirred. Unless otherwise noted, when diethyl ether is used in the experiments described below, it is Fisher ACS certified material and is stabilized with BHT. Unless otherwise noted, “concentrated” and/or “solvent removed under reduced pressure” means evaporating the solvent from a solution or mixture using a rotary evaporator or vacuum pump. Unless otherwise noted, flash chromatography is carried out on a Teledyne Isco (Lincoln, NE), Analogix (Burlington, WI), or Biotage (Stockholm, SWE) automated chromatography system using a commercially available cartridge as the column. Columns may be purchased from Teledyne Isco, Analogix, Biotage, Varian (Palo Alto, CA), or Supelco (Bellefonte, PA) and are usually filled with silica gel as the stationary phase. Reverse phase prep-HPLC conditions, where used, can be found at the end of each experimental section. Aqueous solutions were concentrated on a Genevac (Ipswich, ENG) or by freeze-drying/lyophilization. Unless otherwise noted, all LRRK2 pIC50 data presented in tables refers to the LRRK2 G2019S Km ATP LanthaScreen™ assay (Life Technologies Corp., Carlsbad, CA) that is described in the Biological Assay section.
Biological Assay: LRRK2 Km ATP LanthaScreen™ Assay
The LRRK2 kinase activity reported herein as IC50 values was determined with LanthaScreen™ technology from Life Technologies Corporation (Carlsbad, CA) using GST-tagged truncated human mutant G2019S LRRK2 in the presence of the fluorescein-labeled peptide substrate LRRKtide, also from Life Technologies. The data presented for the Km ATP LanthaScreen™ Assay represents mean IC50 values based on several test results and may have reasonable deviations depending on the specific conditions and reagents used. Assays were performed in the presence of 134 μM ATP (Km ATP). Upon completion, the assay was stopped and phosphorylated substrate detected with a terbium (Tb)-labeled anti-pERM antibody (cat. no. PV4898). The compound dose response was prepared by diluting a 10 mM stock of compound to a maximum concentration of 9.99 μM in 100% dimethylsulfoxide followed by custom fold serial dilution in dimethylsulfoxide nine times. Twenty nanoliters of each dilution was spotted via a Labcyte Echo onto a 384-well black-sided plate (Corning 3575) followed by 15 μl of a 1.25 nM enzyme solution in 1× assay buffer (50 mM Tris pH 8.5, 10 mM MgCl2, 0.01% Brij-35, 1 mM EGTA, 2 mM dithiothreitol, 0.05 mM sodium orthovanadate). Following a 15-minute incubation at room temperature, the kinase reaction was started with the addition of 5 μl of 400 nM fluorescein-labeled LRRKtide peptide substrate and 134 μM ATP solution in 1× assay buffer. The reaction was allowed to progress at ambient temperature for 90 minutes. The reaction was then stopped by the addition of 20 μl of TR-FRET Dilution Buffer (Life Technologies, Carlsbad, CA) containing 2 nM Tb-labeled anti-phospho LRRKtide antibody and 10 mM EDTA (Life Technologies, Carlsbad, CA). After an incubation of 1 hour at room temperature, the plate was read on an EnVision multimode plate reader (Perkin Elmer, Waltham, MA) with an excitation wavelength of 337 nm (Laser) and a reading emission at both 520 and 495 nm. Compound IC50s were interpolated from nonlinear regression best fits of the log of the final compound concentration, plotted as a function of the 520/495-nm emission ratio using Activity base. Abase uses a 4 parameter (4P) logistic fit based on the Levenberg-Marquardt algorithm.

T1 sequence (Q5S007 970-2527 G2019S limits assumed): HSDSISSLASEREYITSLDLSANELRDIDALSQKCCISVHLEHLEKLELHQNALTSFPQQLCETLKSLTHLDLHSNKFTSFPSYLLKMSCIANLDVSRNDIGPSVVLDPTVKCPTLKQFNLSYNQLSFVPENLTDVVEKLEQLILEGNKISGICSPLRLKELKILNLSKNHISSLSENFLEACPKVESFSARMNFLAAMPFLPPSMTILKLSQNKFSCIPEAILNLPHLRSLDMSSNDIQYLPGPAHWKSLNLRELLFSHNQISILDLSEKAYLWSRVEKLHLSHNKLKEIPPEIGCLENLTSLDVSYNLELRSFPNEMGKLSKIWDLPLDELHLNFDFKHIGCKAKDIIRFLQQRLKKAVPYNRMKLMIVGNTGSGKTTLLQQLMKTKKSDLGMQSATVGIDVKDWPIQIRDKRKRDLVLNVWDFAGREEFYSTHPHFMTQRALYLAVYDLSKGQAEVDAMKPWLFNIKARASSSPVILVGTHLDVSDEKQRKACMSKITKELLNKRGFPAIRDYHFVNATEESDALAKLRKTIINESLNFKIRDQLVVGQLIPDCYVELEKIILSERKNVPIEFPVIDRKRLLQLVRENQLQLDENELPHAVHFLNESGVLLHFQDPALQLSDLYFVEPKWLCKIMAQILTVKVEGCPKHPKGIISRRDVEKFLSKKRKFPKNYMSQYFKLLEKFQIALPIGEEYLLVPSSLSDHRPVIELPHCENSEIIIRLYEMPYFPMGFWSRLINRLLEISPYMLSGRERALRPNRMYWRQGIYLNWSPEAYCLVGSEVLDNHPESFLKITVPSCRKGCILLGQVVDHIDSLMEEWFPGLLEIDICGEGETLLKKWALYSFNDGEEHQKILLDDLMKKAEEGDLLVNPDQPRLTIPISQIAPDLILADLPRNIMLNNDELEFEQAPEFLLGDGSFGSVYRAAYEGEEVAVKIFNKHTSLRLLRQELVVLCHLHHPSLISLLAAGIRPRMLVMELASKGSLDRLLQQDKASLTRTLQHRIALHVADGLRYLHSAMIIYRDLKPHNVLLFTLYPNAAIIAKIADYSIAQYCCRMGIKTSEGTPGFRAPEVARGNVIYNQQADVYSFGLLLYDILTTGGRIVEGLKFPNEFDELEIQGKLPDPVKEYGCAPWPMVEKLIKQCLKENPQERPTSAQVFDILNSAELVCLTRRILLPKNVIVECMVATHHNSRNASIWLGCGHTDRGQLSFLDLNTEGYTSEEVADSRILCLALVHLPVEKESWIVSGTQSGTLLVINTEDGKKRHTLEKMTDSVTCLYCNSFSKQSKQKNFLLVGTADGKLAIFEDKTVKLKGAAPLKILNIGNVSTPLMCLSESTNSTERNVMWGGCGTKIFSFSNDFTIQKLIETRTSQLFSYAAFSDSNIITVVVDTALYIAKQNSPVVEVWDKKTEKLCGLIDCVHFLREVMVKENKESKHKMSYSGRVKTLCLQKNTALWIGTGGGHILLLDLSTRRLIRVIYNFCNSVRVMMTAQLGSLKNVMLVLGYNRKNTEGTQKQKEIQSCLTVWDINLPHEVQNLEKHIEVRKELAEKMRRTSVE

`CC1C(C(=O)Nc2cc3cc(N4CCN(C5(C)COCC5O)CC4)c(Cl)cc3cn2)C1c1ccccn1` (single isomer, unassigned) [Ex-11.3, (1R,2R,3R, or 1R,2S,3R, or 1S,2R,3S, or 1S,2S,3S)-N-(7-chloro-6-(4-((3R,4R or 3S,4S)-4-hydroxy-3-methyltetrahydrofuran-3-yl)piperazin-1-yl)isoquinolin-3-yl)-2-methyl-3-(pyridin-2-yl)cyclopropane-1-carboxamide]: the IC50 was 0.0813 nM.
On to `CC1(N2CCN(c3cc4cc(NC(=O)C5CC56CCOC6)ncc4cc3Cl)CC2)COCC1O` (single isomer, unassigned) [Ex-2.9, (1R,3R or 1S,3S)-N-(7-chloro-6-(4-((3R,4R or 3S,4S)-4-hydroxy-3-methyltetrahydrofuran-3-yl)piperazin-1-yl)isoquinolin-3-yl)-5-oxaspiro[2.4]heptane-1-carboxamide], for which the IC50 was 0.195 nM.
With `Cn1ncc(C2CC2C(=O)Nc2cc3cc(N4CCN(C5(C)COCC5F)CC4)c(Cl)cc3cn2)c1C(F)(F)F` (single isomer, unassigned) [Ex-10.62, (1R,2R or 1S,2S)-N-[7-chloro-6-[4-((3R,4R or 3S,4S)-4-fluoro-3-methyl-tetrahydrofuran-3-yl)piperazin-4-ium-1-yl]-3-isoquinolyl]-2-[1-methyl-5-(trifluoromethyl)pyrazol-4-yl]cyclopropanecarboxamide], the IC50 is 0.0813 nM.
The same measure, in the same setting: the figure for `CC1(N2CCN(c3cc4cc(NC(=O)C5CC5c5cccs5)ncc4cc3Cl)CC2)COCC1O` (single isomer, unassigned) [Ex-10.13, (1R,2R or 1R,2S)-N-[7-chloro-6-[4-((3R,4R or 3S,4S)-4-hydroxy-3-methyl-tetrahydrofuran-3-yl)piperazin-1-yl]-3-isoquinolyl]-2-(2-thienyl)cyclopropanecarboxamide] is 0.0813 nM.
“(3R or 3S)-N-[6-[4-((3R,4R or 3S,4S)-4-fluoro-3-methyl-tetrahydrofuran-3-yl)piperazin-1-yl]-7-methyl-3-isoquinolyl]-5,5-dimethyl-tetrahydrofuran-3-carboxamide [Ex-10.96]”: the “LRRK2 pIC50” value was determined as 8.99.
Take `CCC1C(C(=O)Nc2cc3cc(N4CCN(C5(C)CCOC5)CC4)c(C)cc3cn2)C1c1cnn(C)c1` (single isomer, unassigned) [Ex-10.38, (1R,2R,3R, 1R,2S,3R, 1S,2R,3S, or 1S,2S,3S)-2-ethyl-N-[7-methyl-6-[4-((R or S)-3-methyltetrahydrofuran-3-yl)piperazin-4-ium-1-yl]-3-isoquinolyl]-3-(1-methylpyrazol-4-yl)cyclopropanecarboxamide]: the IC50 is 0.759 nM.
On the same count and under the same terms, the figure for `CC1(N2CCN(c3cc4cc(NC(=O)C5CC56CCOCC6)ncc4cc3Cl)CC2)COCC1O` (single isomer, unassigned) [Ex-2.2, (R or S)-N-(7-chloro-6-(4-((3R,4R or 3S,4S)-4-hydroxy-3-methyltetrahydrofuran-3-yl)piperazin-1-yl)isoquinolin-3-yl)-6-oxaspiro[2.5]octane-1-carboxamide] is 3.63 nM; for `Cc1cc2cnc(NC(=O)C3CC34CCOCC4)cc2cc1N1CCN(C2(C)COCC2O)C[C@@H]1C` (single isomer, unassigned) [Ex-15.2, (R or S)-N-(6-((2R or 2S)-4-(4-(3R,4R or 3S,4S)-hydroxy-3-methyltetrahydrofuran-3-yl)-2-methylpiperazin-1-yl)-7-methylisoquinolin-3-yl)-6-oxaspiro[2.5]octane-1-carboxamide] it is 0.0813 nM.
On the same count and under the same terms, the result for `Cc1cc2cnc(NC(=O)C3C(C)C3c3cnn(C)c3)cc2cc1N1CCN(C2(C)CCOC2)CC1` (single isomer, unassigned) [Ex-9.12] reads 0.0813 nM; that for `CC1(N2CCN(c3cc4cc(NC(=O)C5CC5C(F)F)ncc4cc3Cl)CC2)COCC1F` (single isomer, unassigned) [Ex-10.76, (1R,2R or 1S,2S)-N-[7-chloro-6-[4-((3R,4R or 3S,4S)-4-fluoro-3-methyl-tetrahydrofuran-3-yl)piperazin-1-yl]-3-isoquinolyl]-2-(difluoromethyl)cyclopropanecarboxamide], 0.0813 nM.
On the same count and under the same terms, the figure for `Cc1cc2cnc(NC(=O)C3C4CCOCC43)cc2cc1N1CCN(C2(C)CCOC2)CC1` (single isomer, unassigned) [Ex-10.45, (1S,6R,7R, 1R,6S,7R, or 1R, 6S,7S, or 1S,6S,7S)-N-(7-methyl-6-(4-((R or S)-3-methyltetrahydrofuran-3-yl)piperazin-1-yl)isoquinolin-3-yl)-3-oxabicyclo[4.1.0]heptane-7-carboxamide] is 0.145 nM; for `Cc1cc2cnc(NC(=O)C3CC3c3ccccn3)cc2cc1N1CCN(C2(C)COCC2F)CC1` (single isomer, unassigned) [Ex-6.13] it is 0.0813 nM; for `CC1(C)OCCC1C(=O)Nc1cc2cc(N3CCN(C4(C)COCC4O)CC3)c(Cl)cc2cn1` (single isomer, unassigned) [Ex-1.24, (R or S)-N-(7-chloro-6-(1-((3R,4R or 3S,4S)-4-hydroxy-3-methyltetrahydrofuran-3-yl)piperazin-4-yl)isoquinolin-3-yl)-2,2-dimethyltetrahydrofuran-3-carboxamide] it is 69.2 nM.
As for `Cn1ncc(C2CC2C(=O)Nc2cc3cc(N4CCN(C5(C)CCOC5)CC4)c(Cl)cc3cn2)c1C(F)(F)F` (single isomer, unassigned) [Ex-10.27, (1R,2R or 1S,2S)-N-[7-chloro-6-[4-((R or S)-3-methyltetrahydrofuran-3-yl)piperazin-4-ium-1-yl]-3-isoquinolyl]-2-[1-methyl-5-(trifluoromethyl)pyrazol-4-yl]cyclopropanecarboxamide], the IC50 is 38 nM.
In the case of `CC12CC(C(=O)Nc3cc4cc(N5CCN(C6(C)COCC6O)CC5)c(Cl)cc4cn3)(CO1)C2` (single isomer, unassigned) [Ex-2.18, N-(7-chloro-6-(4-((3R,4R or 3S,4S)-4-hydroxy-3-methyltetrahydrofuran-3-yl)piperazin-1-yl)isoquinolin-3-yl)-1-methyl-2-oxabicyclo[2.1.1]hexane-4-carboxamide], the IC50 is 15.5 nM.
The same measure, in the same setting: the result for `CC1(N2CCN(c3cc4cc(NC(=O)C5CC56CC6)ncc4cc3Cl)CC2)COCC1O` (single isomer, unassigned) [Ex-2.14, (R or S)-N-(7-chloro-6-(4-((3R,4R or 3S,4S)-4-hydroxy-3-methyltetrahydrofuran-3-yl)piperazin-1-yl)isoquinolin-3-yl)spiro[2.2]pentane-1-carboxamide] reads 0.468 nM; that for `C[C@H]1CN(C2(C)COCC2O)CCN1c1cc2cc(NC(=O)C3CC34CCOCC4)ncc2cc1Cl` (single isomer, unassigned) [Ex-14.2, N-(7-chloro-6-((2R or 2S)-4-(4-(3R,4R or 3S,4S)-hydroxy-3-methyltetrahydrofuran-3-yl)-2-methylpiperazin-1-yl)isoquinolin-3-yl)-6-oxaspiro[2.5]octane-1-carboxamide], 0.0813 nM.
Regarding `CC1(N2CCN(c3cc4cc(NC(=O)C5CCC(F)(F)CO5)ncc4cc3Cl)CC2)COCC1O` (single isomer, unassigned) [Ex-10.2, (2R or 2S)-N-(7-chloro-6-((3R, 4R or 3S, 4S)-4-(4-hydroxy-3-methyltetrahydrofuran-3-yl)piperazin-1-yl)isoquinolin-3-yl)-5,5-difluorotetrahydro-2H-pyran-2-carboxamide], the IC50 was 0.676 nM.
